Source: US20250011777A1, “DELIVERY OF ANITSENSE OLIGOMERS BY MIRROR IMAGE PEPTIDES” (SAREPTA THERAPEUTICS, INC., priority 2021, published 2025)

What was measured:
[1] = after administration; cited from earlier work
[2] = tested on: HeLa 654 cells (EGFP gene interrupted by a mutated intron of ß-globin, IVS2-654); assay: EGFP 654 assay (corrective splicing by PMO IVS2-654, flow cytometry); assay type: cell-based; conditions: PMO-CPP conjugates, 22 h, read-out: EC50 in concentration-response EGFP assay
Protocol: Purified constructs were then tested using an activity-based readout in which nuclear delivery results in fluorescence. Briefly, HeLa cells stably transfected with an Enhanced Green Fluorescent Protein (EGFP) gene interrupted by a mutated intron of ß-globin (IVS2-654) produce a non-fluorescent EGFP protein. Successful delivery of PMO IVS2-654 to the nucleus results in corrective splicing and EGFP synthesis.
The amount of PMO delivered to the nucleus is therefore correlated with EGFP fluorescence, quantified by flow cytometry. Activity is reported as mean fluorescence intensity (MFI) relative to PMO alone. This activity assay provides indirect information on how much active PMO is delivered to the nucleus. Relative efficiency of a PMO-CPP could be characterized by comparing activity to internal concentration, as discussed later (FIG. 2). […]
For individual peptide testing, PMO-peptides were dissolved in PBS without Ca2+ or Mg2+ at a concentration of 1 mM (determined by UV) before being diluted in MEM. […] Gates were applied to the data to ensure that cells that were positive for propidium iodide or had forward/side scatter readings that were sufficiently different from the main cell population were excluded. […]
Analysis was conducted using Graphpad Prism 7 and FlowJo. For each sample, the mean fluorescence intensity (MFI) and the number of gated cells was measured. […]

Substance	time within which the majority of the drug is cleared renally [1] [h]	EC50 [2] [nM]
Eteplirsen	≤ 24	–
RXRRBRRXRRBR [BPEP]	–	~3000
